Laboratory results reported in BindingDB's records for doi:10.1021/bi00246a005 (Texas A&M University, 1991).

Target: T1, Carbamoyl-phosphate synthase small chain (Escherichia coli (strain K12), UniProt P0A6F1)
T1 sequence (P0A6F1 whole entry): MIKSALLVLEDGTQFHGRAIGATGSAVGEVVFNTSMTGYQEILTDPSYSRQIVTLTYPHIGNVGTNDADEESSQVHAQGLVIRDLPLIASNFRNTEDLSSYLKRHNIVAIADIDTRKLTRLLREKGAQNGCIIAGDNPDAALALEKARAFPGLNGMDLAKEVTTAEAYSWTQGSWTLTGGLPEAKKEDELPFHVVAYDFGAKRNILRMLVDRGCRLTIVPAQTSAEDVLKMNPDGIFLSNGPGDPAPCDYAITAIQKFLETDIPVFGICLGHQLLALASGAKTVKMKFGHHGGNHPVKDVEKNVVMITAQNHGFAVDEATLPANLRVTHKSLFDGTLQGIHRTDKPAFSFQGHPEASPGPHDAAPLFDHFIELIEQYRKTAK
Experiment: Enzyme Assay
Conditions: pH 7.5
Method: The rate of carbamoyl phosphate synthesis was determined by use of a coupled enzyme assay with ornithine transcarbamoylase.

Ki | Compound
28000 µM | NC(CCC(=O)O)C(=O)O (stereo not given) [Glutamine Analogue, 4]
25000 µM | COC(=O)CCC(N)C(=O)O (stereo not given) [Glutamine Analogue, 5]

Continued, compound first:

Compound | Ki
NC(=O)CCC(N)C(=O)O (stereo not given) [Glutamine Analogue, 1] | 54 µM
NC(CCC(=O)NO)C(=O)O (stereo not given) [Glutamine Analogue, 2] | 9 µM
NNC(=O)CCC(N)C(=O)O (stereo not given) [Glutamine Analogue, 3] | 340 µM
